Test results taken from PubChem BioAssay (NCI).
Several values for one entry are separate records, joined by “and”; a condition that tells them apart may be missing. Equal entries are not always repeated.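 Following 48 hours of exposure in 96-well plates, responses at five concentrations were used to interpolate endpoints linearly. Here, GI50 denotes the concentration required for 50% inhibition of growth. Definition used: TGI = concentration required for complete inhibition of growth.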

What was measured:
Assay in all cases: DTP human tumour cell line panel, 48 h
TK-10 renal = system: TK-10 renal
UACC-257 melanoma = system: UACC-257 melanoma
DU-145 prostate = system: DU-145 prostate
HCT-15 colon = system: HCT-15 colon
OVCAR-3 ovarian = system: OVCAR-3 ovarian
T-47D breast = system: T-47D breast
M14 melanoma = system: M14 melanoma
ACHN renal = system: ACHN renal

SMILES | GI50 (TK-10 renal) | TGI (TK-10 renal) | GI50 (UACC-257 melanoma) | GI50 (DU-145 prostate) | TGI (DU-145 prostate) | GI50 (HCT-15 colon) | TGI (HCT-15 colon) | GI50 (OVCAR-3 ovarian) | TGI (OVCAR-3 ovarian) | GI50 (T-47D breast) | TGI (T-47D breast) | GI50 (M14 melanoma) | TGI (M14 melanoma) | GI50 (ACHN renal) | TGI (ACHN renal) | TGI (UACC-257 melanoma)
COc1ccc(CC(NC(=O)[C@H](C)NC(=O)CN2CCOCC2)C(=O)N[C@@H](Cc2ccccc2)C(=O)[C@@]2(C)CO2)cc1 (some centres undefined) | 0.47 µM | 4.93 µM | 0.296 µM | 0.437 µM | 5.71 µM | 5.64 µM | 76.3 µM | 0.198 µM | 0.421 µM | 0.208 µM | 0.482 µM | 0.284 µM | 2.5 µM | 0.801 µM | > 33.5 µM | –
O=C(Nc1ccc(Cl)cc1)c1cc(S(=O)(=O)Nc2nnc(-c3ccccc3)c(-c3ccccc3)n2)c(SCc2ccccc2)cc1Cl | 29.8 µM | > 64.4 µM | 21.9 µM | 37.2 µM | > 62.1 µM | 32.8 µM | > 64.2 µM | 17.1 µM | 41.2 µM | 24.8 µM | > 64.2 µM | 21.2 µM | 51.6 µM | 27.7 µM | > 61.5 µM | 61.3 µM
COc1cc(-c2cc(/C=C3\C(=O)Nc4ccccc43)[nH]n2)cc(OC)c1OC | – | – | 2.37 µM | 4.35 µM | 15.1 µM | 2.57 µM | 10.1 µM | 3.21 µM | 14.5 µM | 1.74 µM | 6.99 µM | 2.29 µM | 7.17 µM | 2.5 µM | 12 µM | 6.56 µM
CCN(CC)CCOc1ccc2c(c1)C(=O)c1cc(OCCN(CC)CC)ccc1-2 | 19.2 µM | 90.9 µM | 11.5 µM | 14.8 µM | 81.5 µM | 12.1 µM | 44.6 µM | 18.3 µM | 52.6 µM | 23.8 µM | 56.2 µM | 14 µM | 27.1 µM | 5.92 µM | 46.5 µM | 24.9 µM
CC1SC(c2c(Cl)cccc2Cl)N(NC(=O)C(O)c2ccccc2)C1=O (centres undefined) | > 100 µM | > 100 µM | 86.3 µM | > 100 µM | > 100 µM | 47.3 µM | > 100 µM | 54.1 µM | > 100 µM | 48.2 µM | > 100 µM | 87 µM | > 100 µM | 92.2 µM | > 100 µM | > 100 µM
O=S(=O)(O)/C(=C\c1ccccc1)c1ccccc1 (tested in a mixture with another compound) | – | > 100 µM | – | – | > 100 µM | – | > 100 µM | – | > 100 µM | – | > 100 µM | – | > 100 µM | – | > 100 µM | > 100 µM
CC(O)(CNS(=O)(=O)c1ccccc1)c1ccccc1 (centres undefined) | – | > 100 µM | – | – | > 100 µM | – | > 100 µM | – | > 100 µM | – | > 100 µM | – | > 100 µM | – | > 100 µM | –
COC(=O)C1(C2CC/C(C)=C/CC/C(C)=C/CC[C@@]3(C)O[C@@H]3C2)CC1 (some centres undefined) | > 59.6 µM | > 100 µM | > 83.7 µM | 33.6 µM | > 100 µM | > 66.7 µM | > 100 µM | 62.9 µM | > 100 µM | > 93 µM | > 100 µM | 37.5 µM | > 72.2 µM | > 41.3 µM | > 62.2 µM | > 100 µM
NCCP(=O)(O)O | – | > 100 µM | – | – | > 100 µM | – | > 100 µM | – | > 100 µM | – | > 100 µM | – | > 100 µM | – | > 100 µM | > 100 µM
O=C(O)c1cscc1Cc1cccs1 | – | > 100 µM | – | – | > 100 µM | – | > 100 µM | – | > 100 µM | – | > 100 µM | – | > 100 µM | – | > 100 µM | > 100 µM
C1=C(c2ccccc2)C(c2ccc(OCCN3CCCCC3)cc2)Oc2ccccc21 (centres undefined) | 1.69 µM | 3.4 µM | 2.02 µM | 2.73 µM | 9.12 µM | 1.5 µM | 2.99 µM | 1.88 µM | 4.14 µM | 1.04 µM | 2.78 µM | 1.73 µM | 3.38 µM | 1.66 µM | 3.15 µM | 4.15 µM
COc1ccc2c(c1)cn1c3ccc(O)cc3[nH]c(=O)c21 | 0.881 µM | 2.49 µM | 0.836 µM | 0.234 µM | 8.74 µM | 0.111 µM | 2.21 µM | 0.0968 µM | 1.74 µM | 0.487 µM | 2.37 µM | 0.0984 µM | 1.21 µM | 0.112 µM | 1.99 µM | 18.5 µM
CCCCCCNc1nc(N2CCOCC2)c2[nH]c(NCCCCCC)nc2n1 | 1.87 µM | 3.45 µM | 1.62 µM | 1.51 µM | 2.83 µM | 1.64 µM | 3.22 µM | 1.76 µM | 3.14 µM | – | – | 1.84 µM | 3.39 µM | 1.6 µM | 2.95 µM | 3.16 µM
Cc1nc2cc(Nc3nc(Nc4ccc(F)cc4)nc(N4CCN(C)CC4)n3)ccc2n1Cc1ccccc1 | – | – | 1.8 µM | 1.75 µM | 3.37 µM | 1.55 µM | 3.48 µM | 1.84 µM | 3.51 µM | – | – | 1.97 µM | 3.69 µM | 1.87 µM | 3.83 µM | 3.3 µM
CNC(=O)OC1C(O[C@H]2C[C@H]3[C@@H]4CC=C5C[C@@H](O)CC[C@]5(C)[C@H]4CC[C@]3(C)[C@H]2[C@H](C)C(=O)CCC(C)C)OCC(O)C1OC1OCC(O)C(O)C1OC(=O)c1ccc(OC)cc1 (some centres undefined) | 0.793 µM | 7.69 µM | 0.0237 µM | 0.0246 µM | 6.12 µM | 0.677 µM | 4.01 µM | 1.03 µM | 6.1 µM | 0.035 µM | 3.69 µM | 0.0137 µM | 0.0757 µM | 0.263 µM | 5.13 µM | 0.105 µM
Cc1ccc(C2C3=C(N=c4s/c(=C/c5ccc(Br)cc5)c(=O)n42)c2ccc4ccccc4c2OCC3)cc1 (centres undefined) | > 100 µM | > 100 µM | 35.7 µM | > 100 µM | > 100 µM | 2.89 µM | > 100 µM | > 100 µM | > 100 µM | > 100 µM | > 100 µM | > 100 µM | > 100 µM | > 100 µM | > 100 µM | > 100 µM
Nc1ccc2ccc(NS(=O)(=O)N3CCCCC3)cc2c1 | 3.15 µM | > 100 µM | 12.9 µM | 1.45 µM | 22.2 µM | 0.44 µM | > 100 µM | – | – | 0.381 µM | > 75.3 µM | – | – | 3.64 µM | > 100 µM | > 100 µM
CC(=O)[C-](C(C)=O)c1ccccc1.CC(=O)[C-](C(C)=O)c1ccccc1.CC[O-].CC[O-].[Ti+4] | > 100 µM | > 100 µM | > 100 µM | – | – | > 100 µM | > 100 µM | > 100 µM | > 100 µM | – | – | > 100 µM | > 100 µM | > 100 µM | > 100 µM | > 100 µM
CC(C)(C)OC(=O)CN1CCc2c(sc3ncnc(N/N=C/c4cccc5ccccc45)c23)C1 | 5.34 µM | > 33.3 µM | 4.59 µM | 4.73 µM | 31.9 µM | 2.2 µM | 9.57 µM | 1 µM | 3.92 µM | 1.83 µM | 17.9 µM | – | – | 1.59 µM | 7.5 µM | 21.7 µM
COC(=O)OCc1ccc2c(c1)C(=O)c1c-2n(CCCBr)c(=O)c2cc([N+](=O)[O-])ccc12 | 19.1 µM | 61.3 µM | > 100 µM | > 100 µM | > 100 µM | > 100 µM | > 100 µM | > 100 µM | > 100 µM | > 100 µM | > 100 µM | – | – | 24.2 µM | 93.8 µM | > 100 µM
CCOC(=O)N[C@H]1CCc2c(Br)c(OC)c(OC)c(OC)c2-c2ccc(SC)c(=O)cc21 | 3.8 µM | > 60.4 µM | 8.64 µM | < 0.01 µM | 0.125 µM | < 0.01 µM | 12.2 µM | < 0.01 µM | – | – | – | < 0.0128 µM | 4.35 µM | < 0.01 µM | 15 µM | 45.2 µM
CC(O)C(O)C(O)C(/C=N\Nc1ccccc1)=N/Nc1ccccc1 (centres undefined) | – | 35.4 µM | – | – | 35.7 µM | – | 27 µM | – | 40.4 µM | – | 45.9 µM | – | 27.9 µM | – | 25.3 µM | –
CO[C@@]12C[C@H]3[C@@H]([C@@H](O)[C@@H](OC(=O)/C=C/c4ccccc4)[C@@]4(O)C(C)(C)CCC[C@]34C)[C@@H](C)C1=CC(=O)O2 | 6.15 µM | > 100 µM | 14.4 µM | 13.4 µM | 78.8 µM | 4.51 µM | 19.2 µM | 2.01 µM | 11.6 µM | – | – | 18.2 µM | > 100 µM | 4.16 µM | 17.8 µM | 32.1 µM
O=[N+]([O-])/C=C\c1c[nH]c2ccc(OCc3ccccc3)cc12 | – | 23.1 µM | – | – | 22.2 µM | – | – | – | 22.8 µM | – | 12.4 µM | – | 4.49 µM | – | 4.72 µM | 3.73 µM
Cc1cc(C)cc(Nc2ccc([N+](=O)[O-])c(NCCN3CCOCC3)n2)c1 | 13 µM | > 100 µM | > 100 µM | – | > 100 µM | 0.000928 µM | > 100 µM | 0.000367 µM | 0.00192 µM | – | – | 0.00162 µM | – | 0.0143 µM and 0.012 µM | > 100 µM | > 100 µM
